Consider 3 molecules from patent publication US4230698A, “2-Substituted arabinofuranosyl nucleosides and nucleotides” (Research Corporation, priority 1978, dated 1980).

Structures are written as SMILES.

In series [1] the test system is Molt 4F (T-type from lymphoblastic leukemia). The experiment in a line: In vitro cytotoxicity testing (growth inhibition, Trypan Blue exclusion), Molt 4F. The following applies: Homo sapiens, 40 hr, 37 degrees C, read-out: Concentration for 50% Inhibition of Growth. Format: cell-based. On the procedure:
(§1) Cytarazid, the β-anomer of the nucleoside prepared in Example 3 herein, and cytaramin, the nucleoside prepared in Example 4 herein, are evaluated in vitro for growth inhibiting potency against mammalian cancer cells by a micro technique, using the culture conditions described by Bobek et al. in J. Med. Chem., vol. 20, p. 458 (1977), whereby 0.5 ml. aliquots of medium (RPMI 1640.div.10% fetal calf serum) containing the test compound are introduced into 16×125 mm. screw cap culture tubes, followed by 0.5 ml. portions of the medium containing 1×10^5 mammalian cancer cells. The cultures are incubated at 37 degrees C. for 40 hr., after which time the viable cells are counted by Trypan Blue exclusion. During this time the cell number in the controls increases about four to nine-fold with an average cell viability of 99%. The test results are as follows:
(§2) Concentration for 50% Inhibition of Growth
(§3) Cell Line Cytarazid Cytaramin

Series [2] concerns L-1210. The series is described as follows: In vitro cytotoxicity testing (growth inhibition, Trypan Blue exclusion), L-1210. The conditions noted are these: Mus musculus, L1210, 40 hr, 37 degrees C, read-out: Concentration for 50% Inhibition of Growth. The class given is cell-based. The procedure:
as §1, §2, §3

For series [3], the system named is Herpes Simplex type I virus. The experiment in a line: In vitro antiviral testing, plaque reduction, Herpes Simplex type I. The class given is cell-based. The following applies: for antiviral properties: plaque reduction. An excerpt:
(§4) Cytarazid and cytaramin, when tested in vitro against Herpes Simplex types I and II viruses, utilizing the plaque reduction technique described by Dulbecco, Proceedings National Academy of Sciences, vol. 38, p.

Series [4] has as its system HeLa. The series is described as follows: In vitro cytotoxicity testing (growth inhibition, Trypan Blue exclusion), HeLa. The following applies: Homo sapiens, 40 hr, 37 degrees C, read-out: Concentration for 50% Inhibition of Growth. Format: cell-based. On the procedure:
as §1, §2, §3

The subject of series [5] is Herpes Simplex type II virus. The series is described as follows: In vitro antiviral testing, plaque reduction, Herpes Simplex type II. The conditions noted are these: for antiviral properties: plaque reduction. Format: cell-based.
Description: as §4

Series [6] has as its system CR-CdR deaminase. The series is described as follows: in vitro. The procedure:
(§5) Partially purified CR-CdR deaminase is prepared from two different sources: (1) human liver, following the procedure of Wentworth and Wolfender, Biochemistry, vol. 14, p. 5099 (1975), and (2) blast cells of patients with acute myelocytic leukemia, using ammonium sulfate fractionation and DEAE column chromatography. The assay procedure is described by Wentworth and Wolfander, ibid.

Series [7] deals with L-1210 leukemic cells. The series is described as follows: In vivo cytotoxicity testing, survival of mice inoculated with L-1210 leukemic cells. The conditions noted are these: control 8.7 days. The arrangement: species or system DBA/2 HaDD mice. On the procedure:
Cytarazid and cytaramin are evaluated in vivo for growth inhibitory potency against leukemic cells by intraperitoneally inoculating DBA/2 HaDD mice with an IP-PBS saline suspension of 1×10^6 L-1210 leukemic cells, waiting 24 hrs., and then administering the test compound intraperitoneally in 0.2 ml. of saline-phospate buffer solution (pH 7.0).

A short description of series [8]: in vitro. The conditions noted are these: human, cr-cdr deaminase. The procedure:
as §5

Setting [9] is: 50 μM, read-out: inhibition of the virus (log).

On to `[N-]=[N+]=N[C@H]1[C@H](O)[C@@H](CO)O[C@H]1n1ccc(N)nc1=O` [Cytarazid, 1-(2-azido-2-deoxy-β-D-arabinofuranosyl) cytosine], for which the IC50 in series [1] was found to be 70 nM; in series [2], 600 nM; in series [4] it was 200 nM. In addition, the inhibition at 50 µM in series [3] (50 μM) is over 99.9%; in series [5] (50 μM) it was over 99%. Further, the log reduction at 50 µM in series [3] (setting [9]) was over 3; in series [5] (setting [9]), over 2. Further, the antiviral properties result in series [3] and in series [5] was “significant antiviral properties” in each case. Moreover, the “deamination detected in 8 hrs” value in series [6] is given as “no significant deamination”. Besides, in series [7] (40 mg/kg IP twice per day 8 hrs apart for 2 days beginning 24 hrs after tumor inoculation), the “Survival Time” value is over 120 days.
`Nc1ccn([C@@H]2O[C@H](CO)[C@@H](O)[C@@H]2O)c(=O)n1` [cytarabine, reference compound]: in series [8], the half-life is 45 min.
In the case of `Nc1ccn([C@@H]2O[C@H](CO)[C@@H](O)[C@@H]2N)c(=O)n1` [Cytaramin, 1-(2-amino-2-deoxy-β-D-arabinofuranosyl) cytosine], the IC50 in series [2] is 4000 nM; in series [4], 30000 nM. Besides, the antiviral properties result in series [3] and in series [5] was “significant antiviral properties” throughout. For the same molecule, the “deamination detected in 8 hrs” value in series [6] was “no significant deamination”. The “Survival Time” value in series [7] (75 mg/kg IP twice per day 8 hrs apart for 2 days beginning 24 hrs after tumor inoculation) is on record as over 120 days.

Usually inhibition stands for how much of the control response was suppressed. Low values mean little suppression, high ones strong suppression. Usually half-life stands for the time needed for the level to fall by half in the phase considered. A lower half-life goes with rapid decline.
